In patent US20210015134A1, “CONSUMABLES” (Givaudan S.A., priority 2006, published 2021):

How the values were obtained:
Format in all cases: in vivo
[1] = system: sweet sensitive panelists; assay: Comparative sensory evaluation of sweetness enhancers in sweetener solution or water (Example 1)
Method: Comparative sensory evaluation of sweetness enhancers in 2 or 7% sucrose
The test samples contained the potential sweetness enhancers in 0% sucrose (water), 2% sucrose, or 7% sucrose, and control samples of 0%, 2% and 7% sucrose without any additive. The sensory evaluations were conducted as follows. All samples were presented at ambient temperature in 15 ml aliquots to panels consisting of 5-9 sweet sensitive subjects of varying sweet sensitivity. After tasting each sample, the mouth was rinsed thoroughly with water at ambient temperature prior to tasting the next sample. The sucrose positive control (2% or 7%) was presented first and served as the sweetness reference to which all sweetness enhancer/sucrose combinations were directly compared.
One tasting sequence included tasting the sucrose control first, rinsing with water, tasting the sweetness enhancer/sucrose sample, rinsing with water followed by tasting the sucrose control again. Once the sequence was completed, each panelist chose the sample which was sweeter and evaluated the sweetness of each sample relative to one another.
In a second tasting sequence, this same procedure was followed for the water negative control versus the sweetness enhancer/water samples to determine the sweet taste due to the sweetness enhancer itself at each tested concentration.
Panelists evaluated the sweetness of the sweetness enhancer in water for each concentration. For their evaluation, panelists were allowed to compare any perceived sweetness of the sweetness enhancer to the 2% or 7% sucrose control to determine the relative intensity of sweetness. Mild sweet taste corresponds to the taste of 2% sucrose, strong sweet taste corresponds to the taste of 7% sucrose.
Alternatively to sucrose, the evaluation may be performed with another sweetener, for example, high fructose (55%) corn syrup (HFCS, containing 55% fructose and 45% glucose), erythritol, sucralose, aspartame, or acesulfame potassium (AceK).

[2] = system: sweet sensitive panelists; assay: Ranking test, sweetness isointensity of enhancer in sweetener solution (Example 3a)
Method: Ranking Tests to Determine the Sweetness Isointensity of Sweetness Enhancers to Sucrose Solutions
For comparative ranking, samples of 0.5%, 1%, 1.5%, 7%, 8%, 9%, 10% and 11% sucrose solutions were prepared.
3a) Sweetness Isointensity of Sweetness Enhancer in Sucrose Solutions
The sensory evaluation was conducted using a ranking method. Samples at ambient temperature were randomly presented in 15 ml blind aliquots (unidentifiable by panelists). Panels consisted of 10 sweet sensitive subjects and samples were presented in 4 replications over 2 sessions. After tasting each sample, the mouth was rinsed thoroughly with water at ambient temperature prior to tasting the next sample. Panelists were presented with 7%, 8%, 9%, 10%, 11% sucrose samples and a sixth sample of 7% sucrose with a sweetness enhancer in a concentration near its sweetness detection threshold. They were asked to rank the samples from low to high with respect to perceived sweet taste. R-indices were calculated for 7% sucrose with the sweetness enhancer versus 7%, 8%, 9%, 10% or 11% sucrose.

[3] = system: sweet sensitive panelists; assay: Ranking test, near threshold sweetness isointensity of enhancer in water (Example 3b); settings: for isointensity to sucrose solution: 20 ppm in water, by interpolation
Method: The sensory evaluation was conducted using a ranking method. Samples at ambient temperature were randomly presented in 15 ml blind aliquots (unidentifiable by panelists). […] After tasting each sample, the mouth was rinsed thoroughly with water at ambient temperature prior to tasting the next sample. […] They were asked to rank the samples from low to high with respect to perceived sweet taste.

[4] = system: sweet sensitive panelists; assay: Paired comparison of sweetness enhancers in water versus sucrose (Example 4, modified)
Method: Paired Comparisons of Sweetness Enhancers and Mixtures Thereof in Water and 7% Sucrose
Samples of sweetness enhancers were prepared in water or 7% sucrose. One, two or three sweetness enhancers were used in a sample. All samples were presented to panelists at ambient temperature. The sensory evaluation was conducted using a paired comparison method. […] Samples were paired randomly and presented in unidentifiable pairs of two (left and right) to the panelists in random order. The sample on the left was tasted first, followed by rinsing the mouth with water, then tasting the sample on the right. Once completing the sequence, each panelist ranked the pair of samples for sweetness then evaluated samples with respect to one another with the following descriptors (in ascending order): […]

sweet sensitive subjects = assay: Sweetness quality evaluation (time of onset, localization, duration); settings: for Sensory evaluation of sweetness intensity: sweetness quality
Method: Rebaudioside A (99%+, purified from plant extract, Sweet Aloha Farms, LLC) (1 ppm, 10 ppm, 20 ppm, 30 ppm) in 2% sucrose samples was evaluated for the qualities of the sweetness of the samples (time of onset, localization, duration). The sensory evaluations were conducted as follows. All samples were presented at ambient temperature in 15 ml aliquots and presented blindly to sweet sensitive subjects of varying sweet sensitivity. Subjects tasted the samples and were asked to evaluate the quality of sweetness. Sucrose solutions (2% and 7%) were presented as references.
Rebaudioside A (99%+, purified from plant extract, Sweet Aloha Farms, LLC) (1 ppm, 10 ppm, 20 ppm, 30 ppm) in 7% sucrose samples were evaluated for the qualities of the sweetness of the samples (time of onset, localization, duration). The sensory evaluations were conducted as follows. All samples were presented at ambient temperature in 15 ml aliquots and presented blindly to sweet sensitive subjects of varying sweet sensitivity. Subjects tasted the samples and were asked to evaluate the quality of the sweetness. Sucrose solutions (2% and 7%) were presented as references to evaluate the sweetness of the rebaudioside A samples.
Stevioside extract (95%+, purified from plant extract, Apin Chemicals) (20 ppm, 30 ppm, 40 ppm, 50 ppm) was evaluated in 2% sucrose for the qualities of the sweetness of the samples (time of onset, localization, duration). The sensory evaluations were conducted as follows. All samples were presented at ambient temperature in 15 ml aliquots and presented blindly to sweet sensitive subjects of varying sweet sensitivity. Subjects tasted the samples and were asked to evaluate the sweetness qualities. Sucrose solutions (2% and 7%) were presented as references.
Stevioside (20 ppm, 30 ppm, 40 ppm, 50 ppm) was evaluated in 7% sucrose for the qualities of the sweetness of the samples (time of onset, localization, duration). The sensory evaluations were conducted as follows. All samples were presented at ambient temperature in 15 ml aliquots and presented blindly to sweet sensitive subjects of varying sweet sensitivity. Subjects tasted the samples and were asked to evaluate the sweetness qualities. Sucrose solutions (2% and 7%) were presented as references to evaluate the sweetness of the stevioside samples.

[5] = 20 ppm in 7% sucrose vs 7% sucrose
[6] = 20 ppm in 7% sucrose vs 8% sucrose
[7] = 20 ppm in 7% sucrose vs 9% sucrose
[8] = 20 ppm in 7% sucrose vs 10% sucrose
[9] = 20 ppm in 7% sucrose vs 11% sucrose
[10] = 20 ppm in water vs 0.5% sucrose
[11] = 20 ppm in water vs 1.5% sucrose

C=C1C[C@@]23CC[C@H]4[C@@](C)(CCC[C@@]4(C)C(=O)O[C@@H]4O[C@H](CO)[C@@H](O)[C@H](O)[C@H]4O)[C@@H]2CC[C@]1(O[C@@H]1O[C@H](CO)[C@@H](O)[C@H](O[C@@H]2O[C@H](CO)[C@@H](O)[C@H](O)[C@H]2O)[C@H]1O[C@@H]1O[C@H](CO)[C@@H](O)[C@H](O)[C@H]1O)C3 [Rebaudioside A]
Sensory evaluation of sweetness intensity ([1]; 1 ppm in 2% sucrose): barely perceived as sweeter than sucrose control | Sensory evaluation of sweetness intensity ([1]; 1 ppm in 7% sucrose): very weakly sweeter than sucrose control | Sensory evaluation of sweetness intensity ([1]; 1 ppm in water (Example 8A)): no sweetness | Sensory evaluation of sweetness intensity ([1]; 1 ppm in water (Example 8B)): no sweetness | Sensory evaluation of sweetness intensity ([1]; 10 ppm in 2% sucrose): notably sweeter than sucrose control | Sensory evaluation of sweetness intensity ([1]; 10 ppm in 7% sucrose): notably sweeter than sucrose control | Sensory evaluation of sweetness intensity ([1]; 10 ppm in water (Example 8A)): barely perceivable, late onsetting sweet | Sensory evaluation of sweetness intensity ([1]; 10 ppm in water (Example 8B)): barely perceivable, late onsetting sweet | Sensory evaluation of sweetness intensity ([1]; 20 ppm in 2% sucrose): much sweeter than sucrose control | Sensory evaluation of sweetness intensity ([1]; 20 ppm in 7% sucrose): much sweeter than sucrose control | Sensory evaluation of sweetness intensity ([1]; 20 ppm in water (Example 8A)): barely perceivable sweetness | Sensory evaluation of sweetness intensity ([1]; 20 ppm in water (Example 8B)): barely perceivable sweetness | Sensory evaluation of sweetness intensity ([1]; 30 ppm in 2% sucrose): substantially sweeter than sucrose control | Sensory evaluation of sweetness intensity ([1]; 30 ppm in 7% sucrose): substantially sweeter than sucrose control | Sensory evaluation of sweetness intensity ([1]; 30 ppm in water (Example 8A)): very weak sweetness far below the 2% sucrose control | Sensory evaluation of sweetness intensity ([1]; 30 ppm in water (Example 8B)): very weak sweetness far below the 2% sucrose control | R-index [2, 5]: 91% | Rebaudioside A sample sweetness [2, 5]: sweeter | R-index [2, 6]: 72% | Rebaudioside A sample sweetness [2, 6]: sweeter | R-index [2, 7]: 7% | Rebaudioside A sample sweetness [2, 7]: less sweet | R-index [2, 8]: 0% | Rebaudioside A sample sweetness [2, 8]: less sweet | R-index [2, 9]: 0% | Rebaudioside A sample sweetness [2, 9]: less sweet | sweetness isointensity to sucrose ([2]; 20 ppm in 7% sucrose, by interpolation): 8.5 % sucrose | R-index [3, 10]: 84% | sample sweetness (RedA, 20 ppm) [3, 10]: sweeter | R-index ([3]; 20 ppm in water vs 1% sucrose): 12% | sample sweetness (RedA, 20 ppm) ([3]; 20 ppm in water vs 1% sucrose): less sweet | R-index [3, 11]: 0% | sample sweetness (RedA, 20 ppm) [3, 11]: less sweet | isointensity to sucrose solution ([3]; listed as rebaudioside): about 0.75 % sucrose | isointensity to sucrose solution ([3]; listed as rebaudioside A): 0.75 % sucrose | Result of comparison ([4]; 1 ppm in water vs 0% sucrose): isosweet | Result of comparison ([4]; 10 ppm in water vs 0% sucrose): weakly sweeter | Result of comparison ([4]; 10 ppm in water vs 0.5% sucrose): notably less sweet | Result of comparison [4, 10]: notably sweeter | Result of comparison ([4]; 20 ppm in water vs 1% sucrose): less sweet | isointensity to sucrose solution ([4]; 30 ppm in water): 1 % sucrose | Result of comparison ([4]; 30 ppm in water vs 1% sucrose): isosweet | Result of comparison ([4]; 30 ppm in water vs 1.5% sucrose): significantly less sweet | Sensory evaluation of sweetness intensity (strength, onset, localisation, duration) (sweet sensitive subjects; 1 ppm in 7% sucrose): immediate onset, full mouth sweet, non-lingering | Sensory evaluation of sweetness intensity (strength, onset, localisation, duration) (sweet sensitive subjects; 10 ppm in 7% sucrose): immediate onset, full mouth sweet, non-lingering | Sensory evaluation of sweetness intensity (strength, onset, localisation, duration) (sweet sensitive subjects; 20 ppm in 7% sucrose): immediate onset, full mouth sweet, non-lingering | Sensory evaluation of sweetness intensity (sweet sensitive subjects; 1 ppm in 2% sucrose): immediate onset, full mouth sweet, non-lingering | Sensory evaluation of sweetness intensity (sweet sensitive subjects; 10 ppm in 2% sucrose): immediate onset full mouth sweet, non-lingering | Sensory evaluation of sweetness intensity (sweet sensitive subjects; 20 ppm in 2% sucrose): immediate onset, full mouth sweet, non-lingering
